Experiments:
HDFs = experiment: proliferation of HDFs; assay type: cell-based, human
Young and aged HDFs = experiment: scratch migration assay; assay type: cell-based, human; settings: for migrated cells (Dapi staining) versus untreated control: 5 mM BHB 72 hours, 18 hours after scratch
Method: Young and aged HDFs were grown to confluence in 0.2% FBS 5 mM glucose DMEM media, cells were treated with or without the presence of 5 mM BHB for 72 hours, cells were scratched with 200 uL yellow pipette tip. After 18 hours, migrated cells were counted using Dapi staining.

[1] = tested on: Primary human dermal fibroblasts (HDFs); experiment: ROS production (DHE cytosolic, MitoSOX Red mitochondrial) in stressed primary human dermal fibroblasts; assay type: cell-based; settings: for decrease of cytosolic ROS production (DHE) / reduction of mitochondrial ROS production (MitoSOX Red): 5 mM BHB 72 hours, then 100 μM tert-butyl-hydrogen peroxide 3 hrs
Method: Primary human dermal fibroblasts (HDFs, passaged 2-8) from young and aged donors (24 to 88 years) were incubated in the absence or presence of BHB for 72 hours prior to stress with 100 μM tert-buytl-hydrogen peroxide for 3 hours. ROS production was measured fluorescently with dihydroethidium (DHE, cytosolic) and MitoSOX Red (mitochondrial) in triplicate, N=6. In the cytosol, aged HDFs produced 28% (p=<0.001)) more ROS basally compared to their young counterparts. When incubated in BHB for 72 hours, ROS production in the young HDFs decreased by 40% (p=<0.0001) and by 41% (p=<0.0001) in the aged. In the mitochondria, aged HDFs produced 27% (p=<0.0001) more ROS at baseline than the young HDFs, consistent with observations in cytosol. […] As such, ketone supplementation is useful against redox stress and augments wound healing, shifting redox homeostasis in HDFs, especially in the elderly. Primary human dermal fibroblasts (HDFs, passaged 2-8) from young and aged donors (24 to 88 years) were incubated in the absence or presence of 5 mM beta-hydroxybutyrate (BHB) for 72 hours. To simulate a wound environment, the cells were then stressed with 100 μM tert-butyl-hydrogen peroxide for 3 hrs. ROS production was measured fluorescently with dihydroethidium (DHE, cytosolic) and Mitosox Red (mitochondrial) in triplicate, N=6. In the cytosol, seen in FIG. 2(A), aged HDFs produced 25% (p=0.003) more ROS basally compared to their young counterparts. This is consistent with the knowledge that aged cells have less antioxidants to mitigate the ROS production in a stressed environment. When incubated in 5 mM BHB for 72 hours, young HDFs ROS production decreased by 40% (p=<0.0001) and aged ROS production decreased by 41% (p=<0.0001). […] When incubated in BHB, ROS production was reduced in the young by 29% (p<0.0001) and in the aged by 51% (p<0.0001) compared to the controls. […] Significance calculated using one-way ANOVA and t-tests on Prism 6 software.

CC(O)CC(=O)O (stereo not drawn) [BHB, beta-hydroxybutyrate]
proliferation (HDFs): did not significantly change proliferation | migrated cells (Dapi staining) versus untreated control (Young and aged HDFs; aged HDFs): migrated significantly more | migration (Young and aged HDFs; both young and aged HDFs, in words): did increase migration | migrated cells (Dapi staining) versus untreated control (Young and aged HDFs; young HDFs): migrated significantly more | decrease of cytosolic ROS production (DHE) ([1]; aged HDFs): 41% | reduction of mitochondrial ROS production (MitoSOX Red) ([1]; aged HDFs): 51% | decrease of cytosolic ROS production (DHE) ([1]; young HDFs): 40% | reduction of mitochondrial ROS production (MitoSOX Red) ([1]; young HDFs): 29% | cytosolic and mitochondrial ROS production ([1]; young and aged primary human dermal fibroblasts, in words): reduces cytosolic and mitochondrial ROS production

— US11806328B2, “Metabolic therapy for wound healing” (University of South Florida, priority 2013, dated 2023)
